Assay results taken from PMC3841161, “De Novo Design and Synthesis of Ultra-Short Peptidomimetic Antibiotics Having Dual Antimicrobial and Anti-Inflammatory Activities” (PLoS ONE, 2013).
Residues, ends and D or L forms follow the SMILES beside them.

Assays:
E. coli [KCTC 1682] = type: cell-based, Escherichia coli; settings: broth microdilution, 1% peptone, 18−20 h at 37°C, absorbance at 600 nm
Experimental: (§1) The antimicrobial activity of the peptides against two Gram-positive bacterial strains and two Gram-negative bacterial strains was examined using the broth microdilution method in sterile 96-well plates. Aliquots (100 µL) of a bacterial suspension at 2×10^6 colony-forming units (CFU)/mL in 1% peptone were added to 100 µL of the peptide solution (serial two-fold dilutions in 1% peptone). After incubation for 18−20 h at 37°C, bacterial growth inhibition was determined by measuring the absorbance at 600 nm with a Microplate Autoreader EL 800 (Bio-Tek Instruments, VT). The minimal inhibitory concentration (MIC) was defined as the minimum peptide concentration inhibited bacteria growth. Two types of Gram-positive bacteria (S. epidermidis [KCTC 1917] and S. aureus [KCTC 1621]) and two types of Gram-negative bacteria (E. coli [KCTC 1682] and P. aeruginosa [KCTC 1637]) were procured from the Korean Collection for Type Cultures (KCTC) at the Korea Research Institute of Bioscience and Biotechnology (KRIBB). MRSA samples (CCARM 3089, CCARM 3090, and CCARM 3095) were obtained from the Culture Collection of Antibiotic-Resistant Microbes (CCARM) at Seoul Women's University (Seoul, Korea).

[1] = test system: human red blood cells (hRBCs); experiment: Hemolytic activity; type: cell-based; settings: 4% (v/v) hRBCs in PBS pH 7.4, 1 h at 37°C, absorbance at 405 nm; maximum concentration 256 µg/mL
Experimental: Hemolytic activity of peptides was tested against hRBCs. Fresh hRBCs were washed three times with phosphate-buffered saline (PBS; 35-mM phosphate buffer containing 150 mM of NaCl, pH 7.4) by centrifugation for 10 min at 1000×g and then re-suspended in PBS. The peptide solutions (serial two-fold dilutions in PBS) were then added to 100 µL of hRBCs in PBS to give a final volume of 200 µL and a final erythrocyte concentration of 4% (v/v). The resulting suspension was incubated with agitation for 1 h at 37°C. The samples were then centrifuged at 1000×g for 5 min, and hemoglobin release was monitored by measuring the absorbance of the supernatant at 405 nm. No hemolysis (blank) and 100% hemolysis controls consisted of hRBCs suspended in PBS and 0.1% Triton X-100, respectively. Percent hemolysis was calculated using the following equation: [drawing 1]

S. aureus [KCTC 1621] = type: cell-based, Staphylococcus aureus; settings: broth microdilution, 1% peptone, 18−20 h at 37°C, absorbance at 600 nm
Experimental: as §1

[2] = test system: P. aeruginosa [KCTC 1637]; type: cell-based, Pseudomonas aeruginosa; settings: broth microdilution, 1% peptone, 18−20 h at 37°C, absorbance at 600 nm
Experimental: as §1

[3] = test system: four bacterial strains (E. coli, P. aeruginosa, S. epidermidis, S. aureus); type: cell-based; settings: four bacterial strains
Experimental: (§2) The prokaryotic selectivity of our designed HDAMPs is defined by the therapeutic index (TI) as a measure of the relative safety of the drug. It is a measure of a peptide's capability to differentiate any pathogen from a host cell. The TI value of each peptide was calculated as the ratio of the HC10 (the peptide concentration that produces 10% hemolysis toward hRBCs) to the geometric mean [GM; the geometric mean of the minimal inhibitory concentration (MIC) against four selected bacterial strains]. Larger values of TI correspond to greater prokaryotic selectivity.
as §1

[4] = test system: hRBCs versus four bacterial strains; experiment: Prokaryotic selectivity (therapeutic index, HC10/GM); settings: ratio of HC10 to GM; 512 µg/mL used for HC10 >256 and 128 µg/mL for MIC >64
Experimental: as §2

[5] = test system: S. epidermidis [KCTC 1917]; type: cell-based, Staphylococcus epidermidis; settings: broth microdilution, 1% peptone, 18−20 h at 37°C, absorbance at 600 nm
Experimental: as §1

[6] = Hydrophobicity by RP-HPLC retention time; type: physicochemical; settings: measure of hydrophobicity; Vydac C18 analytical column 5 µm, 4.6 mm ×250 mm; linear gradient 0–90% acetonitrile in water, 0.05% TFA, 60 min
Source text: A series of Trp (W)/Arg (R)–rich peptides [(WR)3-NH2, (WR)2-NH2 and RWR-NH2], reported as being short and potent antimicrobial peptides, were used as sequence templates, and their antimicrobial and hemolytic activities were compared to seven HDAMPs (Figure 2). Matrix-assisted laser-desorption ionization time-of-flight mass spectrometry (MALDI-TOF MS) was used to verify the molecular weight of both Trp/Arg-rich AMPs and the seven HDAMPs. Human cathelicidin LL-37, a potent antimicrobial and anti-inflammatory peptide, served as a positive control for comparing the antimicrobial, hemolytic, and anti-inflammatory activities. The hydrophobicity of all of the peptides was measured with the use of reverse-phase high-performance liquid chromatography (RP-HPLC) retention time (Rt).
All peptides were prepared by Fmoc SPPS methods using Rink amide with an initial loading of 0.61 mmol/g, unless otherwise noted. Fmoc-Arg(Pbf)-OH and other Fmoc-protected amino acids were purchased from Novabiochem. Resins were swollen in DMF for 45 min prior to synthesis. […] The final purity and hydrophobicity of the peptides (>98%) were assessed by RP-HPLC on an analytical Vydac C18 column (4.6 mm ×25 0 mm, 300 Å, 5 µm particle size, Table 3). The molecular masses of purified peptides were determined using MALDI-TOF MS (Shimadzu, Japan).

trypsin = experiment: Protease stability by radial diffusion assay; type: in vitro ADME; settings: 5 µL of 10 mg/mL peptide in 25 µL of 0.2-µg/mL trypsin in PBS, 37°C, text: 24 h, method: 6 h
Experimental: E. coli (KCTC 1682) was grown overnight for 18 h at 37°C in 10 mL of LB broth, and then 10 µl of this culture was inoculated into 10 mL of fresh LB and incubated for an additional 3 h at 37°C to obtain mid-logarithmic-phase organisms. For the radial diffusion assay method, a bacteria suspension (2×10^6 CFU/mL in LB) was mixed with 0.7% agarose. The mixture was poured into a 10-cm petri dish after rapidly dispersing. Five microliters of an aqueous peptide stock solution (10 mg/mL) were added to 25 µL of the 0.2-µg/mL trypsin solution in PBS, respectively, and incubated at 37°C for 6 h. The reaction was stopped by freezing with liquid nitrogen, and then 10-µL aliquots were placed in each circle paper (≈6 mm in diameter) put on the agarose plates and then incubated at 37°C overnight. The diameters of the bacterial clearance zones surrounding the circle paper were measured for the quantitation of inhibitory activities.

Question: With `N=C(N)NCCC[C@H](NC(=O)[C@H](Cc1c[nH]c2ccccc12)NC(=O)[C@H](CCCNC(=N)N)NC(=O)[C@@H](N)Cc1c[nH]c2ccccc12)C(N)=O` [(WR)2-NH2, reference compound] (H-WRWR-NH2) as the molecule, how does the “Minimal Inhibitory Concentration (MIC) E. coli [KCTC 1682]” value (E. coli [KCTC 1682]) read?
Answer: 32 (45.6) µg/mL

Question: What about the “% Hemolysis (HC10), peptide concentration that induces 10% hemolysis against human erythrocytes” value [1] of the same molecule?
Answer: >256 (>364.5) µg/mL

Question: And the “Minimal Inhibitory Concentration (MIC) S. aureus [KCTC 1621]” value (S. aureus [KCTC 1621])?
Answer: 32 (45.6) µg/mL

Question: What about the “Minimal Inhibitory Concentration (MIC) P. aeruginosa [KCTC 1637]” value [2] of the same molecule?
Answer: 32 (45.6) µg/mL

Question: And the “GM, geometric mean of the MIC values against four bacterial strains” value [3]?
Answer: 26 (37) µg/mL

Question: What about the “TI (HC10/GM), therapeutic index” value [4] of the same molecule?
Answer: 19.7

Question: What about the “Minimal Inhibitory Concentration (MIC) S. epidermidis [KCTC 1917]” value [5] of the same molecule?
Answer: 8 (11.4) µg/mL

Question: For `N=C(N)NCCC[C@H](NC(=O)[C@H](Cc1c[n+](CCCCCCCc2ccccc2)cn1CCCCCCCc1ccccc1)NC(=O)[C@H](CCCNC(=N)N)NC(=O)[C@@H](N)Cc1c[n+](CCCCCCCc2ccccc2)cn1CCCCCCCc1ccccc1)C(N)=O` [Tetrameric HDAMP, His((CH2)7C6H5)2-Arg-His((CH2)7C6H5)2-Arg-NH2], which “RP-HPLC retention time (Rt)” value [6] is on record?
Answer: 37.7 min

Question: For `CC[C@H](C)[C@H](NC(=O)CN)C(=O)NCC(=O)N[C@@H](C)C(=O)N[C@H](C(=O)N[C@@H](CC(C)C)C(=O)N[C@@H](CCCCN)C(=O)N[C@H](C(=O)N[C@@H](CC(C)C)C(=O)N[C@H](C(=O)N[C@H](C(=O)NCC(=O)N[C@@H](CC(C)C)C(=O)N1CCC[C@H]1C(=O)N[C@@H](C)C(=O)N[C@@H](CC(C)C)C(=O)N[C@H](C(=O)N[C@@H](CO)C(=O)N[C@@H](Cc1c[nH]c2ccccc12)C(=O)N[C@H](C(=O)N[C@@H](CCCCN)C(=O)N[C@@H](CCCNC(=N)N)C(=O)N[C@@H](CCCCN)C(=O)N[C@@H](CCCNC(=N)N)C(=O)N[C@@H](CCC(N)=O)C(=O)N[C@@H](CCC(N)=O)C(N)=O)[C@@H](C)CC)[C@@H](C)CC)[C@@H](C)O)[C@@H](C)O)C(C)C)C(C)C` [melittin], which “antimicrobial activity against E. coli (KCTC 1682) in the presence of trypsin (in words)” value (trypsin) is on record?
Answer: completely lost their antimicrobial activities
